Assay results reported in patent publication EP0234113A1, “2,3-Dihydro-1H-phenalene-2-amino compounds as anti-psychotic drugs” (THE UPJOHN COMPANY, priority 1985, dated 1987).
Counter-ions that a name gives are not always drawn.

Key:
[1] = test system: Dopamine (3H-spiperone); test: Receptor Binding Assay with 3H-spiperone (Dopamine Binding Assay), rat brain homogenate; details: for Dopamine Binding Assay % Decrease from Control: single concentration of 1 uM, 3H-spiperone, rat brain homogenate, 30 min
Method: The Receptor Binding Assay test for antipsychotic acitvity, was conducted as follows:
A rat brain homogenate was prepared (1) by homogenizing a whole rat brain minus the cerebellum in 10 ml of 0.05M THAM-HC1, pH 7.4, using a Polytron at a setting of 7 for 30 sec. and centrifuging at 15,000xg for 10 min. The supernatant was discarded, the pellet resuspended in 10 ml of buffer using the Polytron for 10 sec., and the centrifugation repeated. The pellet was resuspended and diluted to 100 times the original tissue weight with buffer. Then 100 ml of the homogenate was diluted to 400 ml with buffer.
The test drug was weighed out in a scintillation vial in a 1-5 mg ammount. They were dissolved by adding 0.5 ml of N-N-dimethylformamide of (DMF) and then 0.05 ml of 1M acetic acid, and vortexed to solubilize the drug. Then 10 ml of deionized and filtered water was added to the required volume. All compounds were tested at a single concentration of 1 uM.
Samples were prepared for incubation using an ^3H-spiperone (antipsychotic).
Incubation was conducted at 30°C for 30 min. on a shaking water bath. Every 30 sec., 24 tubes were filled with 1 ml of homogenate and put into the bath (this is done every 3 min. until all tubes are in the bath). Upon completion of the incubation procedure, the samples are filtered and rinsed.
The punched filters are dropped into vials, which are in turn filled with ACS liquid scintillation fluid and capped and counted in a liquid scintillation counter. Counting data is recorded and analyzed.
Results are expressed as percent decrease from control.

[2] = test system: Apomorphone-Induced Case Climbing; test: Apomorphine antagonism (Apomorphine gnawing test; apomorphine-induced cage climbing); format: in vivo, Mouse; details: Mus musculus, read-out: Apomor. Antag. ED50
Excerpt: (§1) The Effect on Body Temperature (Hypothermia) Test and the Antagonism of Apomorphone-Induced Case Climbing (ACC), (Apomorphine Gnawing Test) are described on page 1398 of the publication, Journal of Medicinal Chemistry, Vol. 22, No. 11, pp. 1390-1398, in an article entitled "6-Aryl-4H-s-triazolo[4,3-a][1,4]benzodiazepines....Action" by J. B. Hester, Jr., et al.
(§2) Table 3. […] A. Behavioral effects in the rat. B. Behavioral effects in the monkey. C. Doses required to antagonize the indicated behavioral effects of amphetamine. D. Doses required to antagonize the indicated behavioral effects of apomorphine.

[3] = test system: body temperature; test: Hypothermia Test (effect on body temperature); format: in vivo, CF-1 male mice; details: for ED50: Mus musculus, ip, 0.75 h, read-out: Hypothermia ED50; for active in either the hypothermic or the apomorphine antogonism test: either test: hypothermic or apomorphine antagonism
Method: as §1
For the tests here, the Hypothermia Test procedure was run as follows:
A group of four CF-1 male mice (18-22 g each) was injected intraperitoneally with the test compound prepared in 0.25 percent w/v methylcellulose in water solution. After 45 min, abdominal temperature of each mouse was measured using a thermister probe. A control group of four mice was treated with vehicle only and the temperature of the control group was taken in a similar manner. A compound was considered to have a significant effect on body temperature if the mean temperature in the test compound treated group deviated more than 3.5°C from the mean temperature of the parallel control group. Stimulants tend to elevate temperatures; depressants tend to lower body temperature.

[4] = test system: Catalepsy; test: Catalepsy; details: rat
Excerpt: as §2

[5] = test system: dopamine neurons; test: Depression of dopamine neuron firing rates by the drug alone; format: in vivo, rats; details: Rattus norvegicus, iv; for Emax: read-out: MAXIMUM EFFECT (per cent decrease)
Method: (§3) Table 2. Dopamine neuron firing rates were recorded according to published procedures and drugs were injected intravenously in chloral hydrate anesthetized rats. A. Ability of drugs to reverse the depression in firing rates of dopamine neurons by 1 to 2 mg/kg amphetamine. The maximum effect is the maximum amount of the amphetamine effect that was reversed, even when doses were increased beyond dose causing maximum effect. An effect greater than 100% indicates excitation of the neuron beyond its' control rate whereas an effect less than 100% indicates partial agonist effects. B. Depression of dopamine neurons by full agonist apomorphine and partial agonists TDHL, (-)PPP and U-64,273A. Maximum effect is maximum depression that could be realized even after increasing doses beyong the dose causing maximum effect. For both A and B, the ED50 is the dose causing 50% of the respective antagonistic (A) or agonist (B) effect.

[6] = test system: 6-OH DA Turning; test: Antagonism of amphetamine: 6-OH DA turning; format: in vivo; details: i.a. = inactive
Excerpt: as §2

[7] = test system: plasma prolactin; test: Plasma prolactin; format: in vivo; details: 3 mg/kg of chlorpromazine, 30 mg/kg clozapine or U-64,273A; Sprague-Dawley rat
[8] = test system: dopamine metabolites HVA, DOPAC, and 3MT; test: Dopamine metabolites in rat brain; format: in vivo; details: percentage of control; 3 mg/kg of chlorpromazine, 30 mg/kg clozapine or U-64,273A; Sprague-Dawley rat
[9] = test system: Locomotor activity; test: Antagonism of apomorphine locomotor activity in reserpinized mouse; format: in vivo
Excerpt: as §2

[10] = test system: dopamine neurons; test: Reversal of amphetamine depression of dopamine neuron firing rates; format: in vivo, rats; details: for Emax / ED50: Rattus norvegicus, Neuron, iv; for Emax: read-out: MAXIMUM EFFECT (per cent reversal)
Method: as §3, with “An effect greater than 100% indicates excitation of the neuron beyond its' control rate whereas an effect less than 100% indicates partial agonist effects.” left out

[11] = test system: body temperature; test: Antagonism of drug-induced hypothermia; parameters: species or system mice; details: mouse, in vivo
[12] = test system: muscarinic; test: Muscarinic ligand binding, rat brain homogenates; details: 1μM, - indicates ligand was displaced
[13] = test system: alpha-1; test: Alpha-1 ligand binding, rat brain homogenates; details: 1μM, i.a. = inactive
[14] = test system: LSD; test: LSD ligand binding, rat brain homogenates; details: 1μM, - indicates ligand was displaced
[15] = test system: alpha-2; test: Alpha-2 ligand binding, rat brain homogenates; details: 1μM, - indicates ligand was displaced
[16] = Neuron, dose causing 50% of the agonist effect, intravenously, anesthetized rats, read-out: ED50
[17] = B. depress DA neuron firing rates, intravenously, chloral hydrate anesthetized rats

With `CCCN(CCC)C1(C)Cc2cccc3cc(O)cc(c23)C1` (stereo not drawn) [Example 41, 5-Hydroxy-2-methyl-2,3-dihydro-N,N-di-n-propyl-lH-phenalene-2-amine] the “Dopamine Binding Assay % Decrease from Control” value [1] was -55.18%, the ED50 [2] was greater than 50 mg/kg and the ED50 [3] was greater than 50 mg/kg.

Compound `Cc1ccc2c3c(cccc13)CC(N(C)C)C2` (stereo not drawn) [Example 39, part C, 2,3-dihydro-N,N,6-trimethyl-lH-phenalen-2-amine] has an ED50 [2] of 21 mg/kg and an ED50 [3] of 5.3 mg/kg.

In the case of `CN1CCc2cccc3c2[C@H]1Cc1ccc(O)c(O)c1-3` [Apomorphine, apomorphine], the “Catalepsy, active dose” value ([4]; in vivo) is reported as “i.a”, the ED50 [5, 16] is reported as 0.01 mg/kg and the Emax [5, 17] is reported as 100%. The “6-OH DA Turning, rat, dose required to antagonize amphetamine” value [6] was “i.a”.

`CN1CCN(C2=Nc3cc(Cl)ccc3Nc3ccccc32)CC1` [Clozapine, clozapine] was tested, and the “Plasma Prolactin” value [7] was 42%, the “Catalepsy, active dose” value ([4]; i.a. = inactive) was “i.a” and the 3MT [8] was 104%. For the same compound, the DOPAC [8] was 110%, the HVA [8] was 118% and the “Locomotor activity, reserpinized mouse, 3 mg/kg (antag. of apomorphine)” value [9] was 52%. The Emax ([10]; A. antagonize amphetamine depressions, intravenously, chloral hydrate anesthetized rats, 1 to 2 mg/kg amphetamine, >100% = excitation beyond control rate) was 105% and the ED50 ([10]; dose causing 50% of the antagonistic effect, intravenously, anesthetized rats, read-out: ED50) was 2 mg/kg.

Work on `CCCN1CCC[C@@H](c2cccc(O)c2)C1` [(-)PPP] yielded an ED50 [5, 16] of 0.137 mg/kg and an Emax [5, 17] of 68%.

For `O=C(CCCN1CCC(O)(c2ccc(Cl)cc2)CC1)c1ccc(F)cc1` [Haloperidol, haloperidol], the “Catalepsy, active dose” value ([4]; in vivo) was 1 mg/kg, the “block of hypothermia induced by 2-(N,N-di-n-propylamino)-2,3-dihydro-lH-phenalen-5-ol” value [11] was “significantly blocks” and the ED50 [10] was 0.008 mg/kg. The Emax [10] was 164% and the “increase of firing rates to a level greater than controls” value ([10]; after reversal of amphetamine depression of DA neuronal firing) was 64%.

In the case of `CN(C)CCCN1c2ccccc2Sc2ccc(Cl)cc21` [CHLORPROMAZINE, chlorpromazine, reference compound], the “Plasma Prolactin” value [7] is reported as 1057%, the “spiperone, percentage of ligand displaced” value ([1]; 1μM, rat brain homogenates, - indicates ligand was displaced) is reported as -81.6% and the “muscarinic, percentage of ligand displaced” value [12] is reported as -96.4%. The “alpha-1, percentage of ligand displaced” value [13] was -98.6%, the “LSD, percentage of ligand displaced” value [14] was -76.8% and the 3MT [8] was 365%. For the same compound, the DOPAC [8] was 375%, the HVA [8] was 225% and the “alpha-2, percentage of ligand displaced” value [15] was -83.4%. The “Locomotor activity, reserpinized mouse, 3 mg/kg (antag. of apomorphine)” value [9] was 85% (CPZ).

In the case of `CN(C)C1Cc2cccc3cccc(c23)C1` [U-65,556, 2,3-dihydro-N,N-dimethyl-lH-phenalen-2-amine], the “reversal of amphetamine's depression of DA neuronal firing (in words)” value ([10]; intravenous, anesthetized rats) is reported as “reversed amphetamine's depressions of DA neurons without causing firing rates to increase over control”.

Work on `CCN(CC)C(=O)N[C@H]1C[C@@H]2c3cccc4[nH]cc(c34)C[C@H]2N(C)C1` [TDHL, trans-dihydrolisuride] yielded an ED50 ([5]; Neuron) of 0.021 mg/kg, an Emax ([5]; Neuron) of 53% and an ED50 [10] of 0.132 mg/kg. The Emax [10] was 57%.

Work on `CCCN(CCC)C1Cc2cccc3c(SC)ccc(c23)C1` (stereo not drawn) [Example 40, 2,3-Dihydro-N,N-di-n-propyl-6-methylthio-lH-phenalen-2-amine] yielded an ED50 [2] of 12.5 mg/kg and an ED50 [3] of 25 mg/kg.

For `Cc1ccc2c3c(cccc13)CC(N)C2` (stereo not drawn) [Example 38, part C, 6-methyl-2,3-dihydro-lH-phenalen-2-amine], the “Dopamine Binding Assay % Decrease from Control” value [1] was -30.62%, the ED50 [2] was 35 mg/kg and the ED50 [3] was greater than 50 mg/kg.

In the case of `CNC1Cc2cccc3c(C)ccc(c23)C1` (stereo not drawn) [Example 39, part B, 2,3-dihydro-N,6-dimethyl-1H-phenalen-2-amine], the “Dopamine Binding Assay % Decrease from Control” value [1] is reported as -55.37%, the ED50 [2] is reported as 35 mg/kg and the ED50 [3] is reported as 13 mg/kg.

In the case of `CCCN(CCC)C1Cc2cccc3c(C)ccc(c23)C1` (stereo not drawn) [Example 38, title compound, 2,3-Dihydro-6-methyl-N,N-dipropyl-lH-phenalene-2-amine], the “Dopamine Binding Assay % Decrease from Control” value [1] is reported as -82.08%, the ED50 [2] is reported as greater than 50 mg/kg and the ED50 [3] is reported as 18 mg/kg.

“N,N-dimethyl-6-(2-methyl-l,3-dioxan-2-yl)-2,3-dihydro-lH- phenalen-2-amine [(8)]” was tested, and the “active in either the hypothermic or the apomorphine antogonism test” value [3] was “active”.

With `COc1ccc2cccc3c2c1CC(N(C)C)C3` (stereo not drawn) [(31), N,N-dimethyl-4-methoxy-2,3-dihydro-lH-phenalen-2-ylamine maleate salt] the “active in either the hypothermic or the apomorphine antogonism test” value [3] was “active”.

`COc1ccc2cccc3c2c1CC(N(C)C)C3` (stereo not drawn) [(35), N,N-dimethyl-4-methoxy-2 ,3-dihydro-lH-phenalen-2-ylamine hydrochloride] was tested, and the “active in either the hypothermic or the apomorphine antogonism test” value [3] was “active”.

With `NC1Cc2cccc3cc(OCc4ccccc4)cc(c23)C1` (stereo not drawn) [(38), [2-amino-2,3-dihydro-lH-phenalen-5-yl]-a-benzyl ether hydrochloride] the “active in either the hypothermic or the apomorphine antogonism test” value [3] was “active”.

`COC(=O)[C@@H]1[C@H]2C[C@H]3c4[nH]c5ccccc5c4CCN3C[C@@H]2CC[C@@H]1O` [yohimbine] was tested, and the “block of hypothermia induced by 2-(N,N-di-n-propylamino)-2,3-dihydro-lH-phenalen-5-ol” value [11] was “did not alter” and the “block of hypothermia induced by clonidine” value [11] was “did block”.

In the case of `CCNC1Cc2cccc3cccc(c23)C1` [(57), N-ethyl-2,3-dihydro-lH-phenalen-2-amine hydrochloride], the “active in either the hypothermic or the apomorphine antogonism test” value [3] is reported as “active”.

With “N-methyl-6-(2-methyl-l,3-dioxan-2-yl)-2,3-dihydro-lH-phena- len-2-amine [(5)]” the “active in either the hypothermic or the apomorphine antogonism test” value [3] was “active”.

For `CCCN(CCC)C1Cc2cccc3cc(O)cc(c23)C1.Cl` (racemic) [(16), (±)2-(N,N-di-n-propylamino)-2,3-dihydro-1H-phenalen-5-ol hydrochloride], the “active in either the hypothermic or the apomorphine antogonism test” value [3] was “active”.

For `CN(C)C1Cc2cccc3c(OCc4ccccc4)ccc(c23)C1` (stereo not drawn) [(22), [2-(N,N-dimethylamino)-2,3-dihydro-1H-phenalen-6-yl]benzyl ether hydrochloride], the “active in either the hypothermic or the apomorphine antogonism test” value [3] was “active”.
